Measured values reported in patent US7244557B2, “Method of screening modulators of Nod1 signaling” (Regents of the University of Michigan, priority 2003, dated 2007).

Molecular target: T1, NOD1ΔLRR (Homo sapiens, UniProt Q9Y239)
T1 construct: pcDNA3-NOD1-ΔLRR(1–648)-FLAG; expressed in transfected cells; host or cells: HEK293T
T1 sequence (Q9Y239 1-648): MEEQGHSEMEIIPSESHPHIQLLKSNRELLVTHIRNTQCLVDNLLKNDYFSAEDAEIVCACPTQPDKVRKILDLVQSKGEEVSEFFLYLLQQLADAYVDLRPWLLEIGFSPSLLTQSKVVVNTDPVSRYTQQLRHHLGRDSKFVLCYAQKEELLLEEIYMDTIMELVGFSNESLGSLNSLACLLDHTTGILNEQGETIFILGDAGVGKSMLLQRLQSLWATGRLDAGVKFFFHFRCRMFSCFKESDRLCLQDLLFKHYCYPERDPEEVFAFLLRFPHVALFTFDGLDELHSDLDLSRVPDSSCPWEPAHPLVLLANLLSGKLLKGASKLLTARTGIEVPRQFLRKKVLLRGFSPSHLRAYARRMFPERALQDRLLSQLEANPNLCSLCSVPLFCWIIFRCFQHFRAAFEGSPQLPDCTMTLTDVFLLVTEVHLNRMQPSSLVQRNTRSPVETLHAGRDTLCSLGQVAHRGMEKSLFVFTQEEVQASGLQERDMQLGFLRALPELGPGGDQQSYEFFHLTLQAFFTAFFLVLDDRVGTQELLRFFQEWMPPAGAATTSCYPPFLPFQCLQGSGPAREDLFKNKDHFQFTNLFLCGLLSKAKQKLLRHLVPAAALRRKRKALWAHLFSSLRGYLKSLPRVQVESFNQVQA
Experiment: NF-κB activation assay, cells expressing mutant NOD1 lacking LRRs
Format: cell-based
Method: A) Structure of purified PGN fraction from B. subtilis (GM3P) and synthetic PGN-related compounds used in the study. B) Structure of MDP and four copies of GlcNAc-MurNAc with attached L-Ala-γ-D-Gln (4 mer) are indicated by closed and dotted boxes, respectively. C) The ability of cells were transfected with 0.3 ng pcDNA3-NOD1-Flag, 0.1 ng pcDNA3-Nod2 (NOD2) or vector control and reporter pBxIV-luc and pEF-BOS-β-gal plasmids to activate NF-κB. D) The ability of synthetic peptides, iE-DAP and iQ-DAP to stimulate NF-κB activation in the presence of control vector (−) and plasmids encoding NOD1 wild-type, mutant NOD1 lacking LRRs (NOD1ΔLRR) and NOD2. E) The ability of iE-DAP, iQ-DAP and sBLP (1 μg/ml) to activate NF-κB.
Reagents. LPS from S. typhimurium, intact and alkaline-detoxified LPS from E. coli O55:B5 as well as purified lipid A preparations of E. coli F583, MDP, DAP and dsRNA were obtained from Sigma-Aldrich (St. Louis, Mo.). PGN from S. aureus was from Fluka-Chemie (Buchs, Germany). Palmitoyl-Cys ((RS)-2,3-di(palmitoyloxy)-propyl)-Ala-Gly) (sBLP), was obtained from Bachem (Torrance, Calif.). […] The amino acid composition of E. coli O55:B5 LPS was determined using AccQ·Tag amino acid analysis system (Waters, Milford, Mass.) after hydrolysis at 110° C. for 24 hr. […]

γ-D-glutamy-meso-diaminopimelic acid [iE-DAP]
NF-κB activation by mutant NOD1 lacking the LRRs: did not respond
